Target: T1, Human Polθ polymerase domain (aa1820-2590) (Homo sapiens, UniProt O75417)
T1 construct: Human Polθ polymerase domain (aa1820-2590) was expressed in E. coli; made in house; host or cells: E. coli
T1 sequence (O75417 1820-2590): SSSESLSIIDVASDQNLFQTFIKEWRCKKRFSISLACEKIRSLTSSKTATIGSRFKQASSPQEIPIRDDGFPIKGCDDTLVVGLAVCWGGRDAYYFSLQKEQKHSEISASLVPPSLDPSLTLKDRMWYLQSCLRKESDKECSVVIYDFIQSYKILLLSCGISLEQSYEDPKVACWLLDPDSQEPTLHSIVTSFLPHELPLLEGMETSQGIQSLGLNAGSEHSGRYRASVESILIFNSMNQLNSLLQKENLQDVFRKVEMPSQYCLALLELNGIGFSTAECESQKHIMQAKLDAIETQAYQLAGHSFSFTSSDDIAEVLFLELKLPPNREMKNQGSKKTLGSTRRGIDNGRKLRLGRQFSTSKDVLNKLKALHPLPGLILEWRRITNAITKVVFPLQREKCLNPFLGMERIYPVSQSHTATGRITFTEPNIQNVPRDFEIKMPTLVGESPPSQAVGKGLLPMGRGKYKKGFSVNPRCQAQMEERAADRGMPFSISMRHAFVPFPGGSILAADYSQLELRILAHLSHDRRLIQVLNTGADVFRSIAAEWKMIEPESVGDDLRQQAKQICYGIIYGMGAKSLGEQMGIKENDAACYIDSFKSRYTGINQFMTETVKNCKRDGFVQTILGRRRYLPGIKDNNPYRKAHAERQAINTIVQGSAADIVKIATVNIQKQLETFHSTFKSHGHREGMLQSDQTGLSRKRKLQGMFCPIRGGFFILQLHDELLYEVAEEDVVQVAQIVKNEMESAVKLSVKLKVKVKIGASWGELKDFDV
Test: Polθ Polymerase Domain Kinact/KI Assay (PicoGreen)
Format: biochemical
Conditions: 0.8 nM Polθ, 100 nM DNA substrate, kobs vs [I] fit for 2-step covalent inhibitor
In short: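 PicoGreen fluorescence read-out of primer extension; progress curves per inhibitor concentration fitted for kobs, then kobs vs [I] fitted to a two-step covalent model to give Kinact and KI. Conditions: 0.8 nM enzyme, 100 nM DNA substrate, […].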

Kinact/Kl	Structure (SMILES)
80000 M⁻¹ s⁻¹	C=CC(=O)N1Cc2cnc(CN3C[C@H]4CC(=O)N(c5cc(C(F)(F)F)cc(C)n5)[C@@H]4C(=O)N(C)c4cccc(Cl)c43)cc2C1 [Example 277, (3aR,11aS)-5-((2-acryloyl-2,3-dihydro-1H-pyrrolo[3,4-c]pyridin-6-yl)methyl)-6-chloro-10-methyl-1-(6-methyl-4-(trifluoromethyl)pyridin-2-yl)-1,3a,4,5,10,11a-hexahydro-2H-benzo[b]pyrrolo[2,3-f][1,4]diazocine-2,11(3H)-dione]
770000 M⁻¹ s⁻¹	C=CC(=O)N1Cc2cnc(CN3C[C@H]4CC(=O)N(c5cc(C(F)(F)F)cc(C)n5)[C@@H]4C(=O)N(C)c4cccc(Cl)c43)nc2C1 [Example 278, (3aR,11aS)-5-((6-acryloyl-6,7-dihydro-5H-pyrrolo[3,4-d]pyrimidin-2-yl)methyl)-6-chloro-10-methyl-1-(6-methyl-4-(trifluoromethyl)pyridin-2-yl)-1,3a,4,5,10,11a-hexahydro-2H-benzo[b]pyrrolo[2,3-f][1,4]diazocine-2,11(3H)-dione]
900000 M⁻¹ s⁻¹	C=CC(=O)N1Cc2nc(CN3C[C@H]4CC(=O)N(c5cc(C(F)(F)F)cc(C)n5)[C@@H]4C(=O)N(C)c4cccc(Cl)c43)n(CC)c2C1 [Example 279, (3aR,11aS)-5-((5-acryloyl-1-ethyl-1,4,5,6-tetrahydropyrrolo[3,4-d]imidazol-2-yl)methyl)-6-chloro-10-methyl-1-(6-methyl-4-(trifluoromethyl)pyridin-2-yl)-1,3a,4,5,10,11a-hexahydro-2H-benzo[b]pyrrolo[2,3-f][1,4]diazocine-2,11(3H)-dione]
2.54e+06 M⁻¹ s⁻¹	C=CC(=O)N1Cc2nc(CN3C[C@H]4CC(=O)N(c5cc(C(F)(F)F)cc(C)n5)[C@@H]4C(=O)N(C)c4cccc(Cl)c43)sc2C1 [Example 280, (3aR,11aS)-5-((5-acryloyl-5,6-dihydro-4H-pyrrolo[3,4-d]thiazol-2-yl)methyl)-6-chloro-10-methyl-1-(6-methyl-4-(trifluoromethyl)pyridin-2-yl)-1,3a,4,5,10,11a-hexahydro-2H-benzo[b]pyrrolo[2,3-f][1,4]diazocine-2,11(3H)-dione]
1.05e+06 M⁻¹ s⁻¹	C=CC(=O)N1CCOc2cc(CN3C[C@H]4CC(=O)N(c5cc(C(F)(F)F)cc(C)n5)[C@@H]4C(=O)N(C)c4cccc(Cl)c43)ccc21 [Example 281, (3aR,11aS)-5-((4-acryloyl-3,4-dihydro-2H-benzo[b][1,4]oxazin-7-yl)methyl)-6-chloro-10-methyl-1-(6-methyl-4-(trifluoromethyl)pyridin-2-yl)-1,3a,4,5,10,11a-hexahydro-2H-benzo[b]pyrrolo[2,3-f][1,4]diazocine-2,11(3H)-dione]
870000 M⁻¹ s⁻¹	C=CC(=O)Nc1ccc(CN2C[C@H]3CC(=O)N(c4cc(C(F)(F)F)cc(C)n4)[C@@H]3C(=O)N(C)c3cccc(Cl)c32)cn1 [Example 282, N-(5-(((3aR,11aS)-6-chloro-10-methyl-1-(6-methyl-4-(trifluoromethyl)pyridin-2-yl)-2,11-dioxo-1,2,3,3a,4,10,11,11a-octahydro-5H-benzo[b]pyrrolo[2,3-f][1,4]diazocin-5-yl)methyl)pyridin-2-yl)acrylamide]
950000 M⁻¹ s⁻¹	C=CC(=O)Nc1ccc(CN2C[C@H]3CC(=O)N(c4cc(C(F)(F)F)cc(C)n4)[C@@H]3C(=O)N(C)c3cccc(Cl)c32)nc1 [Example 283, N-(6-(((3aR,11aS)-6-chloro-10-methyl-1-(6-methyl-4-(trifluoromethyl)pyridin-2-yl)-2,11-dioxo-1,2,3,3a,4,10,11,11a-octahydro-5H-benzo[b]pyrrolo[2,3-f][1,4]diazocin-5-yl)methyl)pyridin-3-yl)acrylamide]
770000 M⁻¹ s⁻¹	C=CC(=O)Nc1cnc(CN2C[C@H]3CC(=O)N(c4cc(C(F)(F)F)cc(C)n4)[C@@H]3C(=O)N(C)c3cccc(Cl)c32)nc1 [Example 284, N-(2-(((3aR,11aS)-6-chloro-10-methyl-1-(6-methyl-4-(trifluoromethyl)pyridin-2-yl)-2,11-dioxo-1,2,3,3a,4,10,11,11a-octahydro-5H-benzo[b]pyrrolo[2,3-f][1,4]diazocin-5-yl)methyl)pyrimidin-5-yl)acrylamide]
1.98e+06 M⁻¹ s⁻¹	C=CC(=O)N1CC(F)(COCCN2C[C@H]3CC(=O)N(c4cc(C(F)(F)F)cc(C)n4)[C@@H]3C(=O)N(C)c3cccc(Cl)c32)C1 [Example 285, (3aR,11aS)-5-(2-((1-acryloyl-3-fluoroazetidin-3-yl)methoxy)ethyl)-6-chloro-10-methyl-1-(6-methyl-4-(trifluoromethyl)pyridin-2-yl)-1,3a,4,5,10,11a-hexahydro-2H-benzo[b]pyrrolo[2,3-f][1,4]diazocine-2,11(3H)-dione]
610000 M⁻¹ s⁻¹	C=CC(=O)NC1Cc2ccc(CN3C[C@H]4CC(=O)N(c5cc(C(F)(F)F)cc(C)n5)[C@@H]4C(=O)N(C)c4cccc(Cl)c43)cc2C1 (stereo partly drawn) [Example 286, N-(5-(((3aR,11aS)-6-chloro-10-methyl-1-(6-methyl-4-(trifluoromethyl)pyridin-2-yl)-2,11-dioxo-1,2,3,3a,4,10,11,11a-octahydro-5H-benzo[b]pyrrolo[2,3-f][1,4]diazocin-5-yl)methyl)-2,3-dihydro-1H-inden-2-yl)acrylamide]
1.62e+06 M⁻¹ s⁻¹	Cc1cc(C(F)(F)F)cc(N2C(=O)C[C@@H]3CN(CCCC(F)CNC(=O)/C=C/CN(C)C)c4c(Cl)cccc4N(C)C(=O)[C@H]32)n1 (stereo partly drawn) [Example 295, (E)-N-(5-((3aR,11aS)-6-chloro-10-methyl-1-(6-methyl-4-(trifluoromethyl)pyridin-2-yl)-2,11-dioxo-1,2,3,3a,4,10,11,11a-octahydro-5H-benzo[b]pyrrolo[2,3-f][1,4]diazocin-5-yl)-2-fluoropentyl)-4-(dimethylamino)but-2-enamide]
3e+06 M⁻¹ s⁻¹	Cc1cc(C(F)(F)F)cc(N2C(=O)C[C@@H]3CN(CCCC(F)(F)CNC(=O)/C=C/CN(C)C)c4c(Cl)cccc4N(C)C(=O)[C@H]32)n1 [Example 296, (E)-N-(5-((3aR,11aS)-6-chloro-10-methyl-1-(6-methyl-4-(trifluoromethyl)pyridin-2-yl)-2,11-dioxo-1,2,3,3a,4,10,11,11a-octahydro-5H-benzo[b]pyrrolo[2,3-f][1,4]diazocin-5-yl)-2,2-difluoropentyl)-4-(dimethylamino)but-2-enamide]
1.47e+06 M⁻¹ s⁻¹	C=C(CN(C)C)C(=O)N1CC(CN2C[C@H]3CC(=O)N(c4cc(C(F)(F)F)cc(C)n4)[C@@H]3C(=O)N(C)c3cccc(Cl)c32)C1 [Example 297, (3aR,11aS)-6-chloro-5-((1-(2-((dimethylamino)methyl)acryloyl)azetidin-3-yl)methyl)-10-methyl-1-(6-methyl-4-(trifluoromethyl)pyridin-2-yl)-1,3a,4,5,10,11a-hexahydro-2H-benzo[b]pyrrolo[2,3-f][1,4]diazocine-2,11(3H)-dione]
3.64e+06 M⁻¹ s⁻¹	C=C(CN(C)C)C(=O)N1CC(CCN2C[C@H]3CC(=O)N(c4cc(C(F)(F)F)cc(C)n4)[C@@H]3C(=O)N(C)c3cccc(Cl)c32)C1 [Example 298, (3aR,11aS)-6-chloro-5-(2-(1-(2-((dimethylamino)methyl)acryloyl)azetidin-3-yl)ethyl)-10-methyl-1-(6-methyl-4-(trifluoromethyl)pyridin-2-yl)-1,3a,4,5,10,11a-hexahydro-2H-benzo[b]pyrrolo[2,3-f][1,4]diazocine-2,11(3H)-dione]
1.99e+06 M⁻¹ s⁻¹	C=C(CN(C)C)C(=O)N1CC(CCCN2C[C@H]3CC(=O)N(c4cc(C(F)(F)F)cc(C)n4)[C@@H]3C(=O)N(C)c3cccc(Cl)c32)C1 [Example 299, (3aR,11aS)-6-chloro-5-(3-(1-(2-((dimethylamino)methyl)acryloyl)azetidin-3-yl)propyl)-10-methyl-1-(6-methyl-4-(trifluoromethyl)pyridin-2-yl)-1,3a,4,5,10,11a-hexahydro-2H-benzo[b]pyrrolo[2,3-f][1,4]diazocine-2,11(3H)-dione]
3.93e+06 M⁻¹ s⁻¹	C=C(CN(C)C)C(=O)N1CC(C(F)CCCN2C[C@H]3CC(=O)N(c4cc(C(F)(F)F)cc(C)n4)[C@@H]3C(=O)N(C)c3cccc(Cl)c32)C1 (stereo partly drawn) [Example 300, (3aR,11aS)-6-chloro-5-(4-(1-(2-((dimethylamino)methyl)acryloyl)azetidin-3-yl)-4-fluorobutyl)-10-methyl-1-(6-methyl-4-(trifluoromethyl)pyridin-2-yl)-1,3a,4,5,10,11a-hexahydro-2H-benzo[b]pyrrolo[2,3-f][1,4]diazocine-2,11(3H)-dione]
